Source: ChEMBL document CHEMBL1123032, “Antiparasitic agents. 6. Synthesis and anthelmintic activities of novel isothiocyanatophenyl-1,2,4-oxadiazoles” (1985)

Species: Mus musculus
Assay: Compound was evaluated for antihelminthic activity in the diet against Nematospiroides dubius in mice at a concentration 0.013%
Assay type: functional
With `CSc1nc(-c2ccccc2)no1` the Activity was 39%.
In the case of `S=C=Nc1ccc(-c2ncon2)cc1`, the Activity is reported as 48%.
In the case of `Clc1ccc(-c2ncon2)cc1`, the Activity is reported as 36%.
Compound `c1ccc2[nH]c(-c3cscn3)nc2c1` [THIABENDAZOLE] has an Activity of 47%.
In the case of `CCCCCCCCCCCc1nc(N)no1`, the Activity is reported as 8%.

Species: Mus musculus
Assay: Compound was evaluated for antihelminthic activity in the diet against Nematospiroides dubius in mice at a concentration 0.1%
Assay type: functional
For `CSc1nc(-c2ccccc2)no1`, the Activity was 94%.
`S=C=Nc1ccc(-c2ncon2)cc1` showed an Activity of 100%.
In the case of `Clc1ccc(-c2ncon2)cc1`, the Activity is reported as 100%.
`c1ccc2[nH]c(-c3cscn3)nc2c1` [THIABENDAZOLE] showed an Activity of 100%.
With `CCCCCCCCCCCc1nc(N)no1` the Activity was 70%.

Species: Mus musculus
Assay: Compound was evaluated for antihelminthic activity in the diet against Nematospiroides dubius in mice at concentration 0.2%
Assay type: functional
For `CSc1nc(-c2ccccc2)no1`, the Activity was 98%.
Work on `S=C=Nc1ccc(-c2ncon2)cc1` yielded an Activity of 100%.
With `c1ccc2[nH]c(-c3cscn3)nc2c1` [THIABENDAZOLE] the Activity was 100%.
With `CCCCCCCCCCCc1nc(N)no1` the Activity was 93%.

Species: Mus musculus
Assay: Compound was evaluated for antihelminthic activity in the diet against Nematospiroides dubius in mice at a concentration 0.025%
Assay type: functional
`CSc1nc(-c2ccccc2)no1` gave an Activity of 67%.
`S=C=Nc1ccc(-c2ncon2)cc1` showed an Activity of 82%.
`Clc1ccc(-c2ncon2)cc1` gave an Activity of 61%.
Compound `c1ccc2[nH]c(-c3cscn3)nc2c1` [THIABENDAZOLE] has an Activity of 81%.
`CCCCCCCCCCCc1nc(N)no1` showed an Activity of 35%.

Test system: not listed separately
Assay: Anthelmintic activity against Nematospiroides dubius when the dose was administered orally in mouse.
Assay type: functional
Parameters: concentration or dose not given beside the values
Work on `S=C=Nc1ccc(-c2noc(CCl)n2)cc1` yielded an Activity of 38%.
`Clc1ccc(/C=N/c2ccc(-c3ncon3)cc2)cc1` gave an Activity of 0%.
`c1cc(-c2ncon2)ccn1` showed an Activity of 0%.
With `S=C=Nc1ccc(-c2noc(-c3ccccn3)n2)cc1` the Activity was 0%.
For `S=C=Nc1ccc(-c2noc(-c3ccco3)n2)cc1`, the Activity was 72%.
In the case of `COC(=O)Nc1ccc(-c2nc(-c3ccco3)no2)c(Cl)c1`, the Activity is reported as 0%.
With `COCCc1nc(-c2ccc(N=C=S)cc2)no1` the Activity was 0%.
`Fc1ccc(-c2noc(-c3ccc(N=C=S)cc3)n2)cc1` gave an Activity of 0%.
Work on `S=C=Nc1ccc(-c2noc(-c3cccs3)n2)cc1` yielded an Activity of 57%.
For `CCOC(=O)Cc1nc(-c2ccc(N=C=S)cc2)no1`, the Activity was 0%.
With `C(=C\c1cccs1)/c1noc(/C=C/c2cccs2)n1` the Activity was 0%.
With `Fc1ccc(-c2nc(-c3ccc(N=C=S)cc3)no2)cc1` the Activity was 42%.
With `O=C(Nc1cc(-c2nc(-c3ccco3)no2)ccc1Cl)Oc1ccccc1` the Activity was 0%.
Compound `CCN(CC)/C(S)=N\c1cc(-c2nc(-c3ccco3)no2)ccc1Cl` has an Activity of 0%.
For `S=C=Nc1ccc(-c2noc(CCc3ccccc3)n2)cc1`, the Activity was 0%.
With `CCc1nc(-c2ccc(N=C=S)cc2)no1` the Activity was 30%.
`[O-][n+]1ccc(-c2ncon2)cc1` gave an Activity of 0%.
`O=C(Nc1ccc(-c2nc(-c3ccco3)no2)c(Cl)c1)OCC(Cl)(Cl)Cl` showed an Activity of 0%.
With `O=[N+]([O-])CCc1nc(-c2ccccc2)no1` the Activity was 0%.
With `CCOC(=O)c1nc(-c2ccc(N=C=S)cc2)no1` the Activity was 0%.
`S=C=Nc1ccc(-c2noc(C3CC3)n2)cc1` showed an Activity of 0%.
`S=C=Nc1ccc(-c2nc(-c3ccco3)no2)c(Cl)c1` showed an Activity of 0%.
With `S=C=Nc1ccc(-c2ncon2)cc1` the Activity was 100%.
For `O=C(Nc1ccc(-c2nc(-c3ccco3)no2)c(Cl)c1)Oc1ccccc1`, the Activity was 0%.
In the case of `S=C=Nc1ccc(-c2nc(-c3ccccn3)no2)cc1`, the Activity is reported as 0%.
With `S=C=Nc1ccc(-c2nc(-c3ccco3)no2)cc1` the Activity was 90%.
`C(=N/c1ccc(-c2ncon2)cc1)/c1ccc[nH]1` showed an Activity of 0%.
Work on `c1ccc(-c2nc(CCn3cnc4ccccc43)no2)cc1` yielded an Activity of 0%.
With `Nc1ccc(-c2nc(-c3ccc(Cl)cc3)no2)cc1` the Activity was 0%.
For `S=C=Nc1cc(-c2nc(-c3ccco3)no2)ccc1Sc1ccccc1`, the Activity was 0%.
With `O=[N+]([O-])c1ccc2ncn(CCc3noc(-c4ccccc4)n3)c2c1` the Activity was 0%.
In the case of `S=C=Nc1cc(-c2nc(-c3ccco3)no2)ccc1Cl`, the Activity is reported as 0%.
`c1ccc(-c2nc(CCn3c(-c4cscn4)nc4ccccc43)no2)cc1` showed an Activity of 17%.
`S=C=Nc1ccc(-c2noc(C34CC5CC(CC(C5)C3)C4)n2)cc1` gave an Activity of 0%.
`S=C=Nc1ccc(-c2nc(-c3cccs3)no2)cc1` gave an Activity of 22%.
For `CC(=O)Oc1ccccc1-c1nc(-c2ccc(N=C=S)cc2)no1`, the Activity was 0%.
Work on `S=C=Nc1cccc(-c2ncon2)c1` yielded an Activity of 0%.
Work on `Nc1ccc(-c2nc(-c3ccco3)no2)c(Cl)c1` yielded an Activity of 0%.
For `Nc1cc(-c2nc(-c3ccco3)no2)ccc1Cl`, the Activity was 0%.
In the case of `O=[N+]([O-])c1ccc(/C=N\c2ccc(-c3ncon3)cc2)o1`, the Activity is reported as 0%.
With `O=C(Nc1ccc(-c2ncon2)cc1)Oc1ccccc1` the Activity was 0%.
With `O=[N+]([O-])c1cc(/C=N/c2ccc(-c3ncon3)cc2)ccc1Cl` the Activity was 0%.
`COC(=O)Nc1cc(-c2nc(-c3ccco3)no2)ccc1Cl` showed an Activity of 0%.
`S=C=Nc1ccc(-c2noc(-c3ccc(Cl)cc3)n2)cc1` gave an Activity of 0%.
For `Nc1ccc(-c2ncon2)cc1`, the Activity was 0%.
Work on `Nc1ccc(-c2nc(-c3ccc(F)cc3)no2)cc1` yielded an Activity of 18%.
With `COc1cc(-c2nc(-c3ccc(N=C=S)cc3)no2)cc(OC)c1OC` the Activity was 0%.
For `S=C=Nc1cccc(-c2noc(-c3ccco3)n2)c1`, the Activity was 0%.
With `S=C=Nc1cc(-c2ncon2)ccc1Cl` the Activity was 0%.
Compound `CCN(CC)/C(S)=N\c1ccc(-c2nc(-c3ccco3)no2)c(Cl)c1` has an Activity of 0%.
Compound `CN1CCN(Cc2nc(-c3ccc(N=C=S)cc3)no2)CC1` has an Activity of 0%.
For `O=C(Nc1cc(-c2nc(-c3ccco3)no2)ccc1Cl)OCC(Cl)(Cl)Cl`, the Activity was 0%.
In the case of `S=C=Nc1ccc(-c2noc(C3CCCCC3)n2)cc1`, the Activity is reported as 0%.
With `S=C=Nc1ccc(-c2nc(-c3ccc(Cl)cc3)no2)cc1` the Activity was 0%.

Test system: Mus musculus
Assay: Compound was evaluated for antihelminthic activity against Hymenolepis nana when the dose was administered subcutaneously in mouse
Assay type: functional
For `S=C=Nc1ccc(-c2ncon2)cc1`, the Activity was 100%.

Test system: Rodentolepis nana
Assay: Evaluation for antihelminthic activity against Hymenolepis nana when the dose was administered orally in mouse.
Assay type: functional
`S=C=Nc1ccc(-c2noc(CCl)n2)cc1` showed an Activity of 0%.
In the case of `Clc1ccc(/C=N/c2ccc(-c3ncon3)cc2)cc1`, the Activity is reported as 0%.
`c1cc(-c2ncon2)ccn1` showed an Activity of 0%.
In the case of `S=C=Nc1ccc(-c2noc(-c3ccccn3)n2)cc1`, the Activity is reported as 0%.
`S=C=Nc1ccc(-c2noc(-c3ccco3)n2)cc1` showed an Activity of 0%.
Work on `COC(=O)Nc1ccc(-c2nc(-c3ccco3)no2)c(Cl)c1` yielded an Activity of 0%.
Work on `COCCc1nc(-c2ccc(N=C=S)cc2)no1` yielded an Activity of 0%.
With `Fc1ccc(-c2noc(-c3ccc(N=C=S)cc3)n2)cc1` the Activity was 0%.
Work on `S=C=Nc1ccc(-c2noc(-c3cccs3)n2)cc1` yielded an Activity of 25%.
For `CCOC(=O)Cc1nc(-c2ccc(N=C=S)cc2)no1`, the Activity was 0%.
Compound `C(=C\c1cccs1)/c1noc(/C=C/c2cccs2)n1` has an Activity of 0%.
With `Fc1ccc(-c2nc(-c3ccc(N=C=S)cc3)no2)cc1` the Activity was 0%.
With `O=C(Nc1cc(-c2nc(-c3ccco3)no2)ccc1Cl)Oc1ccccc1` the Activity was 0%.
Work on `CCN(CC)/C(S)=N\c1cc(-c2nc(-c3ccco3)no2)ccc1Cl` yielded an Activity of 0%.
`S=C=Nc1ccc(-c2noc(CCc3ccccc3)n2)cc1` showed an Activity of 0%.
In the case of `CCc1nc(-c2ccc(N=C=S)cc2)no1`, the Activity is reported as 0%.
`[O-][n+]1ccc(-c2ncon2)cc1` showed an Activity of 0%.
`O=C(Nc1ccc(-c2nc(-c3ccco3)no2)c(Cl)c1)OCC(Cl)(Cl)Cl` showed an Activity of 0%.
In the case of `O=[N+]([O-])CCc1nc(-c2ccccc2)no1`, the Activity is reported as 0%.
In the case of `CCOC(=O)c1nc(-c2ccc(N=C=S)cc2)no1`, the Activity is reported as 0%.
Work on `S=C=Nc1ccc(-c2noc(C3CC3)n2)cc1` yielded an Activity of 0%.
Compound `S=C=Nc1ccc(-c2nc(-c3ccco3)no2)c(Cl)c1` has an Activity of 100%.
With `O=C(Nc1ccc(-c2nc(-c3ccco3)no2)c(Cl)c1)Oc1ccccc1` the Activity was 0%.
Compound `S=C=Nc1ccc(-c2nc(-c3ccccn3)no2)cc1` has an Activity of 0%.
Compound `S=C=Nc1ccc(-c2nc(-c3ccco3)no2)cc1` has an Activity of 100%.
`C(=N/c1ccc(-c2ncon2)cc1)/c1ccc[nH]1` showed an Activity of 0%.
`c1ccc(-c2nc(CCn3cnc4ccccc43)no2)cc1` showed an Activity of 0%.
Compound `Nc1ccc(-c2nc(-c3ccc(Cl)cc3)no2)cc1` has an Activity of 0%.
`S=C=Nc1cc(-c2nc(-c3ccco3)no2)ccc1Sc1ccccc1` gave an Activity of 0%.
`O=[N+]([O-])c1ccc2ncn(CCc3noc(-c4ccccc4)n3)c2c1` gave an Activity of 0%.
`S=C=Nc1cc(-c2nc(-c3ccco3)no2)ccc1Cl` showed an Activity of 100%.
`c1ccc(-c2nc(CCn3c(-c4cscn4)nc4ccccc43)no2)cc1` showed an Activity of 0%.
Work on `S=C=Nc1ccc(-c2noc(C34CC5CC(CC(C5)C3)C4)n2)cc1` yielded an Activity of 0%.
`S=C=Nc1ccc(-c2nc(-c3cccs3)no2)cc1` showed an Activity of 33%.
Work on `CC(=O)Oc1ccccc1-c1nc(-c2ccc(N=C=S)cc2)no1` yielded an Activity of 0%.
`S=C=Nc1cccc(-c2ncon2)c1` gave an Activity of 0%.
Compound `Nc1ccc(-c2nc(-c3ccco3)no2)c(Cl)c1` has an Activity of 0%.
`Nc1cc(-c2nc(-c3ccco3)no2)ccc1Cl` showed an Activity of 0%.
With `O=[N+]([O-])c1ccc(/C=N\c2ccc(-c3ncon3)cc2)o1` the Activity was 0%.
With `O=C(Nc1ccc(-c2ncon2)cc1)Oc1ccccc1` the Activity was 0%.
In the case of `O=[N+]([O-])c1cc(/C=N/c2ccc(-c3ncon3)cc2)ccc1Cl`, the Activity is reported as 0%.
Work on `COC(=O)Nc1cc(-c2nc(-c3ccco3)no2)ccc1Cl` yielded an Activity of 0%.
With `S=C=Nc1ccc(-c2noc(-c3ccc(Cl)cc3)n2)cc1` the Activity was 0%.
`Nc1ccc(-c2ncon2)cc1` showed an Activity of 0%.
For `Nc1ccc(-c2nc(-c3ccc(F)cc3)no2)cc1`, the Activity was 0%.
With `COc1cc(-c2nc(-c3ccc(N=C=S)cc3)no2)cc(OC)c1OC` the Activity was 0%.
`S=C=Nc1cccc(-c2noc(-c3ccco3)n2)c1` gave an Activity of 50%.
In the case of `S=C=Nc1cc(-c2ncon2)ccc1Cl`, the Activity is reported as 0%.
Work on `CCN(CC)/C(S)=N\c1ccc(-c2nc(-c3ccco3)no2)c(Cl)c1` yielded an Activity of 0%.
For `CN1CCN(Cc2nc(-c3ccc(N=C=S)cc3)no2)CC1`, the Activity was 0%.
For `O=C(Nc1cc(-c2nc(-c3ccco3)no2)ccc1Cl)OCC(Cl)(Cl)Cl`, the Activity was 0%.
For `S=C=Nc1ccc(-c2noc(C3CCCCC3)n2)cc1`, the Activity was 25%.
For `S=C=Nc1ccc(-c2nc(-c3ccc(Cl)cc3)no2)cc1`, the Activity was 0%.

Test system: Mus musculus
Assay: Compound was evaluated for antihelminthic activity against Hymenolepis nana when the dose was administered orally in mouse after destrobilization
Assay type: functional
`S=C=Nc1ccc(-c2ncon2)cc1` gave an Activity of 0%.

Species: Mus musculus
Assay: Compound was evaluated for antihelminthic activity in the diet against Nematospiroides dubius in mice at a concentration 0.05%
Assay type: functional
For `CSc1nc(-c2ccccc2)no1`, the Activity was 96%.
`S=C=Nc1ccc(-c2ncon2)cc1` gave an Activity of 96%.
For `Clc1ccc(-c2ncon2)cc1`, the Activity was 95%.
For `c1ccc2[nH]c(-c3cscn3)nc2c1` [THIABENDAZOLE], the Activity was 94%.
`CCCCCCCCCCCc1nc(N)no1` gave an Activity of 46%.
